Measurements reported in patent publication US9260417B2, “Therapeutic methods and compositions involving allosteric kinase inhibition” (AMITECH THERAPEUTIC SOLUTIONS, INC., priority 2010, dated 2016).

Tests used:
[1] = molecular target: B-RAF/C-RAF heterodimerization (Homo sapiens (Human), UniProt P15056); assay: B-RAF/C-RAF heterodimerization in HUVECs (immunoprecipitation/Western); assay type: cell-based; conditions: ECs stimulated with bFGF or VEGF
R40P = assay: Tumor cell viability; assay type: cell-based; conditions: Pancreatic (mouse spontaneous model) R40P, K-Ras
Method: (§1) For XTT assays, cells were grown in 96-well plates overnight and all assays were conducted in growth medium will full serum and additives. Compounds were serially diluted in DMSO and then further diluted into the medium to give the appropriate concentration while minimizing precipitation associated with serial diluting in medium alone Inhibitors were added for 72 h and cell viability was quantified at 450 nm after the addition of 1 mg/ml XTT solution (Sigma-Aldrich) in phenol-red free DMEM medium containing […] (Sigma-Aldrich). Dose-response curves were plotted using GraphPad Prism software and EC50s were calculated using this program.

HT29 = assay: Tumor cell viability; assay type: cell-based; conditions: Homo sapiens, HT-29; Colon HT29, B-RAF V600E
Method: as §1

MCF7 = assay: Tumor cell viability; assay type: cell-based; conditions: Homo sapiens; Breast MCF7, PI3K
Method: as §1

HCT116 = assay: Tumor cell viability; assay type: cell-based, human; conditions: Homo sapiens, HCT-116; Colon HCT116, K-Ras
Method: as §1

[2] = system: HUVECs co-cultured with hTERT-human hepatic stellate cells; assay: Stellate cell/endothelial cell co-culture tube formation assay; assay type: cell-based; conditions: […] 6, […] 3, 1.0 μM imatinib, 0.5 μM GW 5074
Method: One representative panel from 3 independent experiments is shown. […] Scale bar=200 μm.
The stellate cells were washed in PBS and mixed with early passage HUVECs (p<5) at a ratio of 1:4 and mixed into a 3.75 mg/ml Type 1 Rat tail collagen matrix (BD Biosciences) in M-199 media. 30 μl of this mixture was seeded onto each well of a half-area 96 well plate (Corning). The collagen was allowed to polymerize for 30 min at 37° C. and […] of complete EBM-2 media was added to each well. Various inhibitors were serially diluted in DMSO and subsequently added to duplicate wells 6 h post cell seeding. […] The endothelial tubes and the stellate cells were imaged at 48 h with a 10× objective on a confocal microscope. Images were collected across five fields per well.
Stellate cell/endothelial cell tube formation assay and mouse matrigel model. This assay was performed as described in the SI Methods. The stellate cells were a gift from Dr. David Brenner and previously described (Schnabl, et al. (2002) Laboratory investigation; a journal of technical methods and pathology 82:323-333). […] The mouse matrigel model was performed as previously described (Eliceiri, et al. (1999) Molecular cell 4:915-924 5) and further details of immunohistochemistry and animal dosing can be found herein.
To validate the findings of Example 10, a co-culture angiogenesis assay was utilized to evaluate similar combinations of PDGFR and RAF inhibitors. In the assay, HUVECs are mixed with hepatic stellate cells (a pericyte found in the perisinusoidal space of the liver) in a 3D-collagen gel. The co-culture produced endothelial tubes with pericyte contacts (from the stellate cells) that can be imaged and quantified as shown in FIGS. 4B and C.

[3] = system: Tg(fli1:EGFP) zebrafish embryos; assay: Zebrafish angiogenesis model; conditions: for intersegmental vessel formation: treated 16-48 hpf, 5 μM imatinib, 1 μM GW 5074, alone or combined
Method: Embryos were treated with 1 μM 6 or SU5416, or 10 μM 3 from 20 hours post fertilization (hpf) until 48 hpf. Representative 3D reconstructions of the blood vasculature are shown for both the head and tail regions of the embryo. Designations for the major vessels in the head and tail of the zebrafish embryo at 48 hpf are available in FIG. 8A. (FIG. 3B) Disruption of lumen formation in the zebrafish during late vessel maturation. Zebrafish treated with either 1 μM 6 or 10 μM 3 from 20-48 hpf were imaged at 35 and 48 hpf. […] Shown is 3D overlap reconstruction of the GFP expressing intersegmental vessels with TUNEL-positive nuclei at 48 hpf (shown in red). Representative phase contrast views as well as quantification of intersegmental vessel volumes from FIG. 3A and FIG. 3B can be found in FIG. 8B-D, respectively. (FIG. 3C) Time course of drug addition to zebrafish. […] At 30 hpf the zebrafish embryos established early vessels with evident lumens. […] All scale bars=100 μm.
Z-stacks from laser scanning confocal microscopy are shown depicting formation of the intersegmental vessels at 48 hpf. n=6 embryos/treatment. (FIG. 4B) HUVECs were co-cultured with hTERT-human hepatic stellate cells in a 3-D collagen matrix in the presence of complete EBM-2 medium to monitor pericyte-associated endothelial tube formation. […] The endothelial tubes were stained at 24 h by adding 2 μl FITC labeled Ulex europaeus lectin (Vector labs) per well. Images were acquired 48 h post seeding of the cells. One representative panel from 3 independent experiments is shown. Green—FITC lectin labeled endothelial cells, Red—DiIC(3) labeled stellate cells. […] Scale bar=200 μm. (FIG. 4C) Tube lengths were measured using Metamorph software for each tube for all 10 fields that were acquired. The % pericyte-covered tube length was calculated from the ratio of tube length sums for the tubes with and without pericyte contact. Error bars are reported as ±SEM of two wells per group. *indicates p<0.05 compared to DMSO group.
Zebrafish studies. Transgenic Tg(fli1:EGFP) zebrafish embryos were purchased from www.zfin.org and reported elsewhere (Lawson, et al. (2002) Dev Biol 248:307-318) and maintained according to (“Zebrafish—A Practical Approach”, Oxford University Press, 2002). Compounds in DMSO stock solutions were diluted directly into the water and vessels were imaged for GFP expression using a Nikon c1-si confocal microscope. Apoptosis was measured by TUNEL staining using the Apoptag in situ Red Fluorescence Kit (Chemicon) with a protocol described previously (Stanton, et al. (2006) The Journal of biological chemistry 281:28782-28793).

A549 cells = assay: Cell proliferation assay (BrdU ELISA) in A549 cells; assay type: cell-based; conditions: A549, low serum DMEM (0.5% FBS), 72 h
Method: A549 cells, which endogenously express oncogenic K-RAS, were plated at 2500 cells/well of a 96-well plate in low serum DMEM (0.5% fetal bovine serum) overnight. The next morning, compounds were serially diluted in DMSO and resuspended in fresh DMEM+0.5% medium, which was added to the cells for 72 h. At this time point the cells were fixed and proliferation was quantified using an ELISA for bromodeoxyuriding incorporation (BrdU ELISA, Millipore, Inc.). BrdU incorporation occurs during S phase and is the classical method for determining cell proliferation rates. In FIG. 14B-C, BrdU incorporation is expressed as a percentage of the BrdU incorporation occurring in cells treated with 0.1% DMSO as control. A dotted line represents the growth rate of cells treated with DMSO alone. […] (FIG. 13C)

XPA-1 cells = assay: Cell cycle analysis of XPA-1 cells (flow cytometry); assay type: cell-based; conditions: 5 μM, 20 h
Method: For cell cycle analysis, cells were grown in complete DMEM+10% FBS in the presence of each inhibitor and harvested after 20 h of inhibitor treatment. Cell cycle analysis was performed by flow cytometry following propidium iodide staining. The cells were harvested, fixed with ice cold methanol, treated for 45 min with 10 μg/ml of RNAse and resuspended in PBS containing 10 μg/ml of PI, and analysed by flow cytometry. […] For corresponding confocal microscopy images, cells attached to coverslips were fixed with cold methanol and permeabilized in PBS containing 0.1% triton X-100 for two minutes and blocked for 60 minutes, at room temperature with 2% BSA in PBS. Cells were stained with the DNA binding dye TOPRO-3 (Invitrogen) to label the DNA and laminB (Santa Cruz) to label the nuclear envelope. The anti-Lamin B antibody was used at a 1:100 dilution for two hours at room temperature. After washing several times with PBS, cells were stained for two hours at room temperature, with secondary antibody diluted 1:300 and co-incubated with TOPRO-3 (1:500) (Invitrogen). Samples were mounted in Vectashield hard-set mounting media (Vector Laboratories) and imaged on a Nikon Eclipse Cl confocal microscope with a 1.4 NA 60× oil-immersion lens, using minimum pinhole (30 μm). Images were captured and processed using EZ-C1 3.50 imaging software (Nikon, Inc). Scale bars, 10 μm.

B-RAF/C-RAF heterodimerization, sequence (P15056 whole entry, one chain of several): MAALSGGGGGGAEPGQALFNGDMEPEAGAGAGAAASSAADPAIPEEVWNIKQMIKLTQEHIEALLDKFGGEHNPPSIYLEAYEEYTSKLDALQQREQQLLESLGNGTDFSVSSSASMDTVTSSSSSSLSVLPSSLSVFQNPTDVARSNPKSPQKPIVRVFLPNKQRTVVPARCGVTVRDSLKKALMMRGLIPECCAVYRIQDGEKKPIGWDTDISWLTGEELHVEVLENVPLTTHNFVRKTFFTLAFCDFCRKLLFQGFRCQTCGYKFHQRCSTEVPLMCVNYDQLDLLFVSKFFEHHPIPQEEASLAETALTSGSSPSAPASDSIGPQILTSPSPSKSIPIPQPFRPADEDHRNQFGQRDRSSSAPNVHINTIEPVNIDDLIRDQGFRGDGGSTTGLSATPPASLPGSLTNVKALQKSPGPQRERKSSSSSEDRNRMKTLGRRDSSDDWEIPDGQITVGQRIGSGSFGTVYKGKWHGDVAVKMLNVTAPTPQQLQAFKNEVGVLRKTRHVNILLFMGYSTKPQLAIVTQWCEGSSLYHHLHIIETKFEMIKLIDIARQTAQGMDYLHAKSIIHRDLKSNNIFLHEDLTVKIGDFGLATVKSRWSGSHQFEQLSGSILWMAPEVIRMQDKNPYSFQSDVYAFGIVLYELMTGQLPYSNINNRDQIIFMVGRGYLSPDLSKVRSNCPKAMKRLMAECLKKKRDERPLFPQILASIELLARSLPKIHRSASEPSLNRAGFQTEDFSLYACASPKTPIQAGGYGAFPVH

SMILES: N#CC(=C(/N)Sc1ccccc1N)/C(C#N)=C(\N)Sc1ccccc1N [Compound U0126]
- B-RAF/C-RAF heterodimer formation [1]: greatly increased
- EC50 (R40P): 10.9 µM
- EC50 (HT29): 4.41 µM
- EC50 (MCF7): > 20 µM
- EC50 (HCT116): > 20 µM

SMILES: O=C1Nc2ccc(I)cc2/C1=C/c1cc(Br)c(O)c(Br)c1 [GW 5074, reference compound]
- endothelial tube formation and % pericyte-covered tube length [2]: did not affect pericyte coverage or tube length
- intersegmental vessel formation [3]: do not have an effect on intersegmental vessel formation

SMILES: Oc1cc(-c2nc(-c3ccccc3)[nH]c2-c2ccncc2)ccc1Cl [L-779,450]
- cell proliferation (BrdU incorporation) versus DMSO control (A549 cells): induce hyperproliferation

SMILES: O=C(NOC[C@H](O)CO)c1ccc(F)c(F)c1Nc1ccc(I)cc1F [PD0325901, reference compound]
- cell cycle / mitotic progression (XPA-1 cells): had no effect on mitotic progression

SMILES: CCCS(=O)(=O)Nc1ccc(F)c(C(=O)c2c[nH]c3ncc(Cl)cc23)c1F [PLX 4720]
- cell proliferation (BrdU incorporation) versus DMSO control (A549 cells): induce hyperproliferation

SMILES: Cc1cc(C)c(C=C2C(=O)Nc3ccccc32)[nH]1 [SU5416, 3-[(2,4-dimethylpyrrol-5-yl)methylene]-2-indolinone]
- blood vessel formation in zebrafish embryos ([3]; treated 20-48 hpf, 1 μM 6 or SU5416, up to 10 μM 3): completely disrupting endothelial cell migration and neovascularization in the tail

SMILES: Cc1ccc(NC(=O)c2ccc(CN3CCN(C)CC3)cc2)cc1Nc1nccc(-c2cccnc2)n1 [imatinib, reference compound]
- endothelial tube formation and % pericyte-covered tube length [2]: did not affect endothelial tube formation
- intersegmental vessel formation [3]: do not have an effect on intersegmental vessel formation
